Where two headings read alike, the source gives them in different places.
Legend:
[1] = system: secretion of gastric fluids; assay: anti-secretory activity in pylorus-ligated rats (method of Shay et al.); assay type: in vivo, male albino Wistar rats
Method: In standard biological test procedures, described generally by Shay et al., Gastroenterology 5, 43 (1945) and 26, 906 (1954) and by Selmici et al., Acta Physiol. Acad. Sci. Hung. […] Anti-secretory activity was determined in male albino Wistar rats weighing approximately 180 g. using the method described by Shay et al. which is described as follows: the rats were divided into medicated groups of at least five rats each and control groups of ten rats. The rats were medicated orally once daily for 2 days prior to stomach ligation and once again immediately following ligation. All drugs were administered as the free base, and control rats received only the vehicle of medication. The rats were housed individually in wire cages, food was withdrawn 48 hours prior to surgery, and water was withdrawn at the time of surgery. Laparotomy was performed under light ether anesthesia, the pyloric-duodenal junction was ligated, and the wound was closed with metal clips and sprayed with a protective surgical dressing. Five hours following surgery, the rats were sacrificed, the stomach was removed, and the gastric juice collected. The gastric fluid was centrifuged, the total volume, color, and volume of solids were recorded. The pH of the gastric fluid was then determined on a Beckman pH meter, and the "free" and "total" hydrochloric acid content of each gastric sample was determined by titrating an aliquot of the gastric fluid (diluted to approximately 10 ml. with distilled water) by titrating with 0.1N sodium hydroxide against Toepfers reagent and phenolphthalein, respectively. By determining the milliequivalents of hydrochloric acid per milliliter of gastric juice and knowing the total volume of gastric juice secreted by each rat, the total acid output can be calculated. Since pH is a function of "free" acid, the activity of the test compounds can be evaluated by comparison of the mean "free" acid of medicated rats with the mean "free" acid of the controls, and the activity can thus be expressed in terms of percent inhibition of free acid.
(§1) Data obtained on administration of the compounds of formula I in rats in the anti-secretory and anti-ulcer tests described above are given in the table below. Unless noted otherwise, data were obtained on oral administration. Results in the anti-secretory activity tests are given in terms of the pH of the gastric fluid in the test animals and the percent inhibition of free acid, while results in the anti-ulcer test are given either in terms of the percent inhibition of ulcers or as a ratio representing the number of animals with ulcers (as the numerator) to the total number of animals in the test group (as the denominator). All doses are expressed in mg./kg.

[2] = system: reserpine-induced stomach ulceration; assay: anti-ulcer activity, reserpine-induced ulcer test (method of Selmici et al.); assay type: in vivo, male, albino, Sprague-Dawley rats; settings: for inhibition in vivo at 50 mg/kg: Rattus norvegicus, sc, 18 h; for Anti-Ulcer: ratio of number of animals with ulcers to total number of animals in the test group: s.c., 50 mg./kg.
[3] = system: reserpine-induced stomach ulceration; assay: as above; assay type: in vivo, male, albino, Sprague-Dawley rats; settings: for inhibition in vivo at 100 mg/kg / Anti-Ulcer: ratio of number of animals with ulcers to total number of animals in the test group: 100 mg./kg.
Method: The anti-ulcer activity of the compounds was determined using the reserpine-induced anti-ulcer test method, described by Selmici et al., which is described briefly as follows: male, albino, Sprague-Dawley rats, weighing approximately 300 g., were divided into medicated and control groups of at least five rats each, and one positive control group of five rats medicated with a known drug at the active dose was run with each experiment. The rats were medicated forty-eight, twenty-four, and one hour before receiving an injection of reserpine. All test drugs were administered orally in terms of base, and the control rats received only the vehicle of medication. The rats were housed individually in wire cages, and food was withdrawn 24 hours prior to injection of reserpine, while water was allowed ad libitum. One hour following the third medication, 5.0 mg. of reserpine per kilogram of body weight in a concentration of 5 mg./ml. was injected intramuscularly in each rat. Eighteen hours after injection the rats were sacrificed, their stomachs removed, opened along the greater curvature, rinsed in warm saline, and pinned to a cork board for gross observation. The stomachs were examined for the number and size of ulcerations located in the glandular portion of the stomach with the aid of a one millimeter grid ocular with a 10x dissecting microscope. The degree of ulceration was arbitrarily graded according to the number and size of the ulcers as follows:
The points were added together and divided by the number of rats in each group to give an ulcer score, and the difference in the mean scores of the medicated and control group was expressed as percent inhibition of ulceration. Alternatively, the results can be expressed as a ratio of the total number of rats with any degree of ulceration (as the numerator) to the total number of rats in the test group (as the denominator).
as §1

[4] = Rattus norvegicus, po, 5 h, oral, 100 mg./kg., read-out: % Inhibition of Free Acid
[5] = Rattus norvegicus, intraduodenal, 5 h, i.d., 100 mg./kg., read-out: % Inhibition of Free Acid
[6] = Rattus norvegicus, ip, 5 h, i.p., 100 mg./kg., read-out: % Inhibition of Free Acid
[7] = Rattus norvegicus, sc, 5 h, s.c., 100 mg./kg., read-out: % Inhibition of Free Acid

SMILES | inhibition in vivo at 100 mg/kg [1, 4] | pH of the gastric fluid ([1]; oral, 100 mg./kg.) | inhibition in vivo at 100 mg/kg ([3]; Rattus norvegicus, 18 h, oral) | inhibition in vivo at 100 mg/kg [1, 5] | inhibition in vivo at 100 mg/kg [1, 6] | inhibition in vivo at 100 mg/kg [1, 7] | pH of the gastric fluid ([1]; i.d., 100 mg./kg.) | pH of the gastric fluid ([1]; i.p., 100 mg./kg.) | pH of the gastric fluid ([1]; s.c., 100 mg./kg.) | other results
CNC(=O)Cn1c(C)c(C)c2ccccc21 [Example 1B, 2,3-Dimethyl-1-indole-N-methylacetamide] | 45% | 1.8 | 91% | – | – | – | – | – | – | inhibition in vivo at 6.25 mg/kg ([1]; Rattus norvegicus, intraduodenal, 5 h, i.d., 6.25 mg./kg., read-out: % Inhibition of Free Acid): 46%; pH of the gastric fluid ([1]; i.d., 6.25 mg./kg.): 1.4; inhibition in vivo at 50 mg/kg [2]: 93%
Cc1c(C)n(CC(=O)NCCO)c2ccccc12 [Example 3A, 2,3-dimethyl-1-indole-N-(2-hydroxyethyl)acetamide] | 22% | 1.4 | 84% | – | – | – | – | – | – | inhibition in vivo at 50 mg/kg [2]: 69%
Cc1c(C)n(CCC(N)=O)c2ccccc12 [Example 4A, β-(2,3-dimethyl-1-indole)propionamide] | 100% | 5.3 | – | – | – | – | – | – | – | inhibition in vivo at 50 mg/kg [2]: 89%; inhibition in vivo at 1.56 mg/kg ([3]; Rattus norvegicus, 18 h, oral, 1.56 mg./kg.): 43%; inhibition in vivo at 6.25 mg/kg ([3]; Rattus norvegicus, 18 h, oral, 6.25 mg./kg.): 48%; inhibition in vivo at 25 mg/kg ([3]; Rattus norvegicus, 18 h, oral): 93%
Cc1c(C)n(C(N)=O)c2ccc(Cl)cc12 [Example 5, 2,3-dimethyl-5-chloro-1-indolecarboxamide] | 41% | 2.0 | – | – | – | – | – | – | – | inhibition in vivo at 25 mg/kg ([3]; Rattus norvegicus, 18 h, oral): 0%
Cc1c(C=O)c2ccccc2n1CC(N)=O [Example 6, 2-methyl-3-formyl-1-indoleacetamide] | – | 1.1 | 0% | – | – | – | – | – | – | inhibition in vivo at 100 mg/kg ([1]; Rattus norvegicus, 5 h, oral, 100 mg./kg., read-out: % Inhibition of Free Acid): 0%
Cc1c(C)n(CC(N)=S)c2ccccc12 [Example 7A, 2,3-dimethyl-1-indolethioacetamide] | 58% | 2.3 | – | – | – | – | – | – | – | inhibition in vivo at 25 mg/kg ([3]; Rattus norvegicus, 18 h, oral): 75%
Cc1c(C)n(CCC(N)=S)c2ccccc12 [Example 7B, β(2,3-dimethyl-1-indole)thiopropionamide] | 60% | 2.2 | 100% | – | – | – | – | – | – | –
Cc1c(CO)c2ccccc2n1CCC(N)=O [Example 8A, β-(2-methyl-3-hydroxymethyl-1-indole)propionamide] | 69% | 1.9 | 56% | 100% | 100% | 100% | 5.6 | 7.0 | 6.7 | –
Cc1c(CO)c2ccccc2n1CCCC(N)=O [Example 8B, γ-(2-Methyl-3-hydroxymethyl-1-indole)butyramide] | 5% | 1.3 | 0% | 5% | 62% | 12% | 1.2 | 2.4 | 1.2 | –
Cc1c(CO)c2ccccc2n1CC(N)=O [Example 8C, 2-Methyl-3-hydroxymethyl-1-indoleacetamide] | 62% | 1.5 | – | 30% | 61% | 100% | 1.1 | 2.0 | 6.9 | Anti-Ulcer: ratio of number of animals with ulcers to total number of animals in the test group [2]: 0/5
NC(=O)CCn1c(-c2ccccc2)c(CO)c2ccccc21 [Example 8D, β-(2-Phenyl-3-hydroxymethyl-1-indole)propionamide] | 28% | 1.5 | – | – | – | 38% | – | – | 1.4 | Anti-Ulcer: ratio of number of animals with ulcers to total number of animals in the test group ([3]; oral): 0/5
Cc1c(CO)c2cc(F)ccc2n1CCC(N)=O [Example 8E, β-(2-Methyl-3-hydroxymethyl-5-fluoro-1-indole)propionamide] | 22% | 1.1 | – | 89% | 100% | 100% | 3.5 | 5.9 | 6.1 | Anti-Ulcer: ratio of number of animals with ulcers to total number of animals in the test group [2]: 1/3
Cc1c(C(O)C(F)(F)F)c2ccccc2n1CCC(N)=O (stereo not drawn) [Example 8F, β-[2-Methyl-3-(2-trifluoro-1-hydroxyethyl)-1-indole]-propionamide] | 2% | 1.0 | – | 69% | 24% | 7% | 1.5 | 1.2 | 1.0 | inhibition in vivo at 50 mg/kg ([3]; Rattus norvegicus, 18 h, oral, 50 mg./kg.): 45%
Cc1c(CO)n(CCC(N)=O)c2ccccc12 [Example 8G, β-(2-hydroxymethyl-3-methyl-1-indole)propionamide] | 22% | 1.3 | – | 33% | 34% | – | 1.4 | 1.7 | – | Anti-Ulcer: ratio of number of animals with ulcers to total number of animals in the test group ([3]; oral): 3/5
Cc1cn(CC(N)=O)c2ccccc12 [Reference, 3-methyl-1-indole-acetamide, reference compound] | 62% | 2.3 | 75% | – | – | – | – | – | – | anti-secretory activity (in words) ([1]; rat, in vivo): has anti-secretory and anti-ulcer activities; anti-ulcer activity (in words) ([3]; rat, in vivo): has anti-secretory and anti-ulcer activities

Source: patent publication US4069337A, “2-Substituted-indole-1-lower-alkanecarboxamides having anti-secretory or anti-ulcer activity” (Sterling Drug Inc., priority 1976, dated 1978)
